Assay results as given in paper PMC8342319, “Predicting blood-to-plasma concentration ratios of drugs from chemical structures and volumes of distribution in humans” (Molecular Diversity, 2021).
Where two headings read alike, the source gives them in different places.

How the values were obtained:
[1] = human
[2] = human, cited from earlier work
[3] = human, intravenous, cited from earlier work
[4] = median if multiple values were reported, ref numbers in Table S1
[5] = intravenous, median if multiple values were reported, ref numbers in Table S1
[6] = intravenous, median if multiple values reported, Reference of Table S1
[7] = median if multiple values reported, Reference of Table S1

SMILES | in vivo MRT_(hr)_Human [1] | in vivo Vd_(L/kg)_Human ([2]; in vivo, iv) | in vivo CL_(L/hr/kg)_Human [3, 4] | in vivo Vd_(L/kg)_Human [2, 5] | in vivo Vd_(L/kg)_Human [2, 6] | in vivo CL_(L/hr/kg)_Human [3, 7]
CN(C)Cc1nnc2n1-c1ccc(Cl)cc1C(c1ccccc1)=NC2 [Adinazolam] | 2.634 h | 0.980 L/kg | 0.372 L/h/kg |  |  | 
Cc1[nH]cnc1CN1CCc2c(c3ccccc3n2C)C1=O [Alosetron] | 2.107 h |  | 0.522 L/h/kg | 1.100 L/kg |  | 
Cc1cc(=O)n(-c2ccccc2)n1C [Antipyrine] | 21.354 h |  | 0.038 L/h/kg | 0.820 L/kg |  | 
Cn1c(=O)c2c(ncn2C)n(C)c1=O [Caffeine] | 8.095 h |  | 0.084 L/h/kg | 0.680 L/kg |  | 
COCc1c(C(C)C)nc(C(C)C)c(/C=C/[C@@H](O)C[C@@H](O)CC(=O)O)c1-c1ccc(F)cc1 [Cerivastatin] | 1.897 h |  | 0.174 L/h/kg | 0.330 L/kg |  | 
CN(C)CCCN1c2ccccc2Sc2ccc(Cl)cc21 [Chlorpromazine] | 10.938 h |  | 0.960 L/h/kg | 10.500 L/kg |  | 
NS(=O)(=O)c1cc(C2(O)NC(=O)c3ccccc32)ccc1Cl (stereo not drawn) [Chlorthalidone] | 43.333 h |  | 0.046 L/h/kg | 3.900 L/kg |  | 
CN/C(=N/CCSCc1nc[nH]c1C)NC#N [Cimetidine] | 2.469 h |  | 0.492 L/h/kg | 1.200 L/kg |  | 
CN(C)CCCN1c2ccccc2CCc2ccc(Cl)cc21 [Clomipramine] | 26.423 h |  | 0.492 L/h/kg | 13.000 L/kg |  | 
O=c1ccc2ccccc2o1 [Coumarin] | 2.157 h |  | 1.020 L/h/kg | 2.200 L/kg |  | 
Cc1onc(-c2c(Cl)cccc2Cl)c1C(=O)N[C@@H]1C(=O)N2[C@@H]1SC(C)(C)[C@@H]2C(=O)O [Dicloxacillin] | 0.917 h |  | 0.108 L/h/kg | 0.110 L/kg |  | 
O=c1[nH]cnc2c1ncn2[C@H]1CC[C@@H](CO)O1 [Didanosine] | 1.197 h |  | 0.660 L/h/kg |  |  | 
C[C@H]1O[C@@H](O[C@H]2[C@@H](O)C[C@H](O[C@H]3[C@@H](O)C[C@H](O[C@H]4CC[C@@]5(C)[C@H](CC[C@@H]6[C@@H]5C[C@@H](O)[C@]5(C)[C@@H](C7=CC(=O)OC7)CC[C@]65O)C4)O[C@@H]3C)O[C@@H]2C)C[C@H](O)[C@@H]1O [Digoxin] | 40.196 h |  | 0.102 L/h/kg | 4.100 L/kg |  | 
CN(C)CCC=C1c2ccccc2COc2ccccc21 [Doxepin] | 14.286 h |  | 0.840 L/h/kg | 12.000 L/kg |  | 
CC[C@@H](CO)NCCN[C@@H](CC)CO [Ethambutol] | 2.833 h |  | 0.600 L/h/kg | 1.700 L/kg |  | 
CN1CCN(c2c(F)cc3c(=O)c(C(=O)O)cn(CCF)c3c2F)CC1 [Fleroxacin] | 10.764 h |  | 0.144 L/h/kg | 1.550 L/kg |  | 
OC(Cn1cncn1)(Cn1cncn1)c1ccc(F)cc1F [Fluconazole] | 40.323 h |  | 0.019 L/h/kg | 0.750 L/kg |  | 
CC1(C)O[C@@H]2C[C@H]3[C@@H]4C[C@H](F)C5=CC(=O)C=C[C@]5(C)[C@H]4[C@@H](O)C[C@]3(C)[C@]2(C(=O)CO)O1 [Flunisolide] | 2.500 h |  | 0.720 L/h/kg |  |  | 
CN[C@@H]1CCc2[nH]c3ccc(C(N)=O)cc3c2C1 [Frovatriptan] | 24.000 h |  | 0.150 L/h/kg | 3.600 L/kg |  | 
Nc1nc(O)c2ncn(COC(CO)CO)c2n1 [Ganciclovir] | 3.623 h |  | 0.240 L/h/kg | 1.000 L/kg |  | 
CN1C2CCCC1CC(NC(=O)c1nn(C)c3ccccc13)C2 (stereo not drawn) [Granisetron] | 6.777 h |  | 0.546 L/h/kg | 3.700 L/kg |  | 

SMILES | in vivo MRT_(hr)_Human [1] | in vivo Vd_(L/kg)_Human ([2]; in vivo, iv) | in vivo CL_(L/hr/kg)_Human [3, 4] | in vivo Vd_(L/kg)_Human [2, 5] | in vivo Vd_(L/kg)_Human [2, 6] | in vivo CL_(L/hr/kg)_Human [3, 7]
CC(C)(C)NC(=O)[C@@H]1CN(Cc2cccnc2)CCN1C[C@@H](O)C[C@@H](Cc1ccccc1)C(=O)N[C@H]1c2ccccc2C[C@H]1O [Indinavir] | 0.759 h |  | 1.080 L/h/kg | 0.820 L/kg |  | 
C[C@H]1COc2c(N3CCN(C)CC3)c(F)cc3c(=O)c(C(=O)O)cn1c23 [Levofloxacin] | 37.281 h |  | 0.114 L/h/kg | 4.250 L/kg |  | 
CCCCc1nc(Cl)c(CO)n1Cc1ccc(-c2ccccc2-c2nn[nH]n2)cc1 [Losartan] | 0.752 h |  | 0.489 L/h/kg | 0.370 L/kg |  | 
CC(C)Oc1ccccc1N1CCN(Cc2cccc(C(=O)N3CCCCC3)c2)CC1 [Mazapertine] | 4.160 h |  | 0.370 L/h/kg | 1.540 L/kg |  | 
CCN(CC)CCNC(=O)c1cc(Cl)c(N)cc1OC [Metoclopramide] | 9.357 h |  | 0.342 L/h/kg | 3.200 L/kg |  | 
Cc1ccccc1N1C(=O)c2cc(S(N)(=O)=O)c(Cl)cc2NC1C (stereo not drawn) [Metolazone] | 19.048 h |  | 0.084 L/h/kg | 1.600 L/kg |  | 
Cc1ncc([N+](=O)[O-])n1CCO [Metronidazole] | 7.843 h |  | 0.051 L/h/kg | 0.400 L/kg |  | 
CC(C)(O)c1ccccc1CC[C@@H](SCC1(CC(=O)O)CC1)c1cccc(/C=C/c2ccc3ccc(Cl)cc3n2)c1 [Montelukast] | 3.676 h |  | 0.041 L/h/kg | 0.150 L/kg |  | 
COC(=O)C1=C(C)NC(C)=C(C(=O)OCC(C)C)C1c1ccccc1[N+](=O)[O-] (stereo not drawn) [Nisoldipine] | 6.111 h |  | 0.900 L/h/kg | 5.500 L/kg |  | 
O=C1CN=C(c2ccccc2)c2cc([N+](=O)[O-])ccc2N1 [Nitrazepam] | 32.946 h | 1.700 L/kg | 0.052 L/h/kg |  |  | 
CNCCC=C1c2ccccc2CCc2ccccc21 [Nortriptyline] | 36.667 h |  | 0.516 L/h/kg | 22.000 L/kg |  | 
CC1COc2c(N3CCN(C)CC3)c(F)cc3c(=O)c(C(=O)O)cn1c23 (stereo not drawn) [Ofloxacin] | 10.667 h |  | 0.150 L/h/kg | 1.600 L/kg |  | 
Cc1nccn1CC1CCc2c(c3ccccc3n2C)C1=O (stereo not drawn) [Ondansetron] | 5.172 h |  | 0.354 L/h/kg | 1.800 L/kg |  | 
O=C(c1ccc(OCCN2CCCCC2)cc1)c1c(-c2ccc(O)cc2)sc2cc(O)ccc12 [Raloxifene] | 41.837 h |  |  |  | 36.900 L/kg | 
CCN1CCC[C@H]1CNC(=O)c1c(OC)ccc(Br)c1OC [Remoxipride] | 6.373 h |  |  |  | 0.650 L/kg | 0.102 L/h/kg
O=C(O)CCCCO/N=C(/c1cccnc1)c1cccc(C(F)(F)F)c1 [Ridogrel] | 6.825 h |  |  |  | 0.430 L/kg | 0.063 L/h/kg
CCN(CC)CCNC(=O)c1ccc(NS(C)(=O)=O)cc1 [Sematilide] | 3.694 h |  |  |  | 0.820 L/kg | 0.222 L/h/kg
CCCc1nn(C)c2c(=O)[nH]c(-c3cc(S(=O)(=O)N4CCN(C)CC4)ccc3OCC)nc12 [Sildenafil] | 2.564 h |  |  |  | 1.400 L/kg | 
CCCCNC(=O)NS(=O)(=O)c1ccc(C)cc1 [Tolbutamide] | 9.524 h |  |  |  | 0.120 L/kg | 
CCN(C(C)=O)c1cccc(-c2ccnc3c(C#N)cnn23)c1 [Zaleplon] | 1.354 h | 1.300 L/kg |  |  |  | 
